Like-named read-outs stand apart in the source and are kept apart here.
Key:
[1] = test system: TSPO; assay: Competition binding assay against ^3H-PK11195 in human brain homogenate (HAB, MAB, LAB); conditions: for LAB:HAB affinity ratio: rs6971 polymorphism; for difference between HAB and LAB in individually calculated affinity values: unpaired t-test
Description: (§1) All studies using human tissue were conducted in accordance with the East of Scotland Research Ethics Service (Edinburgh Brain Bank, 11/ES/0022). […] To exclude sex dependent differences in TSPO binding (Fairweather et al.), only male samples were utilized in this study. Sample tissues were homogenized in 10× w/v buffer (50 mM Tris-Base, pH 7.4, 4° C.) before centrifugation (32,000 g, 10 min, 4° C.). Tissue pellets were then resuspended in 10× w/v buffer and centrifuged again before re-suspending them in buffer (2 mL). Samples were then assessed for protein concentration using the Bio-Rad protein assay (Bio-Rad, USA), aliquoted and stored at −80° C. until use.
(§2) Competition binding assays were carried out as previously reported (Blair et al. (Med. Chem. Commun.)). […] A concentration of 8 μM was used to determine non-specific binding for each ligand. Binding was terminated with the addition of 2 mL of ice cold buffer before being immediate filtered over a Whatman GF/B filters (Whatman, UK) pre-treated with 0.3% polyethylenimine (Sigma-Aldrich, USA) using a Brandel harvester (Brandel, USA). Filter paper was then removed, placed into 2.5 mL of Optiphase HiSafe 3 (Perkin Elmer, USA) and counted 48 hours later on a Hidex 300 SL (Hidex, Finland). […] All binding assays were performed in triplicate. GraphPad Prism version 6 (GraphPad Software, USA) was used to fit all binding affinity curves. A comparison of a one-site and two-site fitting was made using the least squares algorithm and model selection was compared using an F test. The null hypothesis (that one-site fitting as more suitable) was rejected if p<0.05. The mean % SB normalized to the minimum inhibition of each group (HAB, MAB or LAB) was used to determine whether a one-site or two-site fitting was appropriate, and to subsequently calculate LAB:HAB ratio. Affinity values (Ki) were calculated by fitting individual tissue samples based on the mean group fitting.

[2] = test system: TSPO; assay: Competition binding assay against ^3H-PK11195 in human heart homogenate (HAB, MAB, LAB); conditions: for LAB:HAB ratio: rs6971 polymorphism; for difference between HAB and LAB in individually calculated affinity values: unpaired t-test
Description: as §1, §2

[3] = in humans; literature; cited from earlier work
[4] = molecular target: TSPO (Homo sapiens, UniProt P30536); assay: Competition binding assay against ^3H-PK11195 in human brain homogenate (HAB, MAB, LAB); design: other: human brain; other: human heart
Description: as §1
Competition binding assays were carried out as previously reported (Blair et al. (Med. Chem. Commun.)). […] A concentration of 8 μM was used to determine non-specific binding for each ligand. Binding was terminated with the addition of 2 mL of ice cold buffer before being immediate filtered over a Whatman GF/B filters (Whatman, UK) pre-treated with 0.3% polyethylenimine (Sigma-Aldrich, USA) using a Brandel harvester (Brandel, USA). Filter paper was then removed, placed into 2.5 mL of Optiphase HiSafe 3 (Perkin Elmer, USA) and counted 48 hours later on a Hidex 300 SL (Hidex, Finland). […] Affinity values (Ki) were calculated by fitting individual tissue samples based on the mean group fitting.

[5] = Pharmacokinetic/Pharmacodynamic study of PK11195 tissue exposure; assay type: in vivo; conditions: Sprague-Dawley, rat, rats, mean±SEM, n=3, read-out: exposure level
[6] = test system: TSPO; conditions: literature; cited from earlier work
[7] = test system: TSPO; conditions: literature (Ikawa et al.); cited from earlier work

Sequence of TSPO (Homo sapiens, UniProt P30536) (P30536 whole entry): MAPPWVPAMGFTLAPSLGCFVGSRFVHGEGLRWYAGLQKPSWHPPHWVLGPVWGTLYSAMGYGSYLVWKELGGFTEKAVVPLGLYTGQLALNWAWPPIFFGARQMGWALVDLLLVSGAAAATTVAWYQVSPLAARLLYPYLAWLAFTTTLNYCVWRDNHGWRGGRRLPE

Row | LAB:HAB affinity ratio [1] | LAB:HAB ratio [2] | Structure (SMILES) | difference between HAB and LAB in individually calculated affinity values [1] | difference between HAB and LAB in individually calculated affinity values [2] | also measured
1 | 9 | 7 | CCN(CC)C(=O)c1nc2ccccc2c(-c2ccccc2)c1CF [AB5186] | significant difference | – | –
2 | – | – | CCC(C)N(C)C(=O)c1cc2ccccc2c(-c2ccccc2Cl)n1 (centres unmarked) [^11C-PK11195] | – | – | plasma free fraction [3]: 1-6%
3 | 1 | 1 | CC[C@@H](C)N(C)C(=O)c1nc2ccccc2c(-c2ccccc2)c1CF [LW223, (R)-(N-sec-Butyl)-3-fluoromethyl-N-methyl-4-phenylquinoline-2-carboxamide] | no significant difference | no significant difference | mean affinity relative to PK11195 [4]: 2 times; Ki ([4]; read-out: mean affinity (Ki)): 0.6 nM
4 | – | – | CCC(C)N(C)C(=O)c1cc2ccccc2c(-c2ccccc2Cl)n1 (centres unmarked) [PK11195] | no significant difference | no significant difference | concentration at 1 h ([5]; brain): 11 ± 1.99 ng/mL; concentration at 1 h ([5]; heart): 29.3 ± 3.93 ng/mL; concentration at 1 h ([5]; lungs): 38.9 ± 2.24 ng/mL
5 | – | – | CC[C@@H](C)N([11CH3])C(=O)c1nc(-c2ccccc2Cl)c2ccccc2n1 [^11C-ER176] | – | – | LAB:HAB ratio in vitro [6]: 1.3; LAB:HAB ratio in vivo [7]: around 3

Row | Structure (SMILES) | LAB:HAB affinity ratio [1] | LAB:HAB ratio [2] | difference between HAB and LAB in individually calculated affinity values [1] | difference between HAB and LAB in individually calculated affinity values [2] | also measured
6 | COc1ccccc1CN(C(C)=O)c1cnccc1Oc1ccccc1 [PBR28] | 49 | 48 | significant difference | – | –

— patent publication US12129235B2, “TSPO binders” (The University Court of the University of Glasgow, priority 2018, dated 2024)
